Experimental data from US8716318B2, “Pyridone sulfonamides and pyridone sulfamides as MEK inhibitors” (Ardea Biosciences, priority 2006, dated 2014).

Tests used:
[1] = target: T1, human GST-MEK1^CA (Ser218Asp, Ser222Asp) (Homo sapiens, UniProt Q02750, S218D/S222D); experiment: MEK1 kinase assay (generation of IC50 data, 33P filter assay with ERK2 and MBP); assay type: biochemical; settings: ATP
T1 construct: GST; made in house; host or cells: Escherichia coli
Source text: Materials and preparation of reagents: Human GST-MEK1 and the constitutively active allele GST-MEK1^CA (harboring the mutations Ser218Asp and Ser222Asp) were subcloned into the yeast expression vector pGEM4Z (Promega, Madison, Wis.) from the wild type human MEK1 cDNA. GST-MEK1^CA was expressed in Escherichia coli and partially purified using Glutathione Sepharose 4B affinity resin (Amersham Pharmacia Biotech, Piscataway, N.J.). The ERK2 allele was subcloned from MAPK2/Erk2 cDNA (wild type) in pUSEamp (Upstate Biotechnology, Inc., Waltham, Mass.) into the vector pET21a (Novagen, Madison, Wis.) resulting in an N-terminal histidine-tagged mouse ERK2 allele. ERK2 was expressed and purified to homogeneity [Zhang, 1993 #33]. Myelin basic protein (MBP) was purchased from Gibco BRL (Rockville, Md.). EasyTides adenosine 5′-triphosphate (ATP) ([γ-^33P]) (NEN Perkin Elmer, Wellesley, Mass.) was the source of radiolabel for all kinase reactions. Activated Raf-1 (truncated) and activated MAPKinase 2/ERK2 were purchased from Upstate, Inc. (Lake Placid, N.Y.). 4-20% Criterion Precast gels were purchased from Bio-Rad (Hercules, Calif.).
Determination of enzymatic activity: Compounds were diluted from dimethylsulfoxide (DMSO) stocks into 1×HMNDE (20 mM HEPES pH 7.2, 1 mM MgCl2, 100 mM NaCl, 1.25 mM DTT, 0.2 mM EDTA). A typical 25-microliter assay contained 0.002 nanomoles MEK1^CA, 0.02 nanomoles ERK2, 0.25 nanomoles MBP, 0.25 nanomoles unlabeled ATP, and 0.1 μCi [γ^33P] ATP. The screening assay essentially comprised four additions. Five μl of diluted compound were dispensed to 96-well assay plates. Ten μl of 2.5× enzyme cocktail (MEK1^CA and ERK2 only) were then added to each well followed by a pre-incubation for 30 minutes at ambient temperature. Ten μl of 2.5× substrate cocktail (labeled and unlabeled ATP plus MBP) were then added, followed by incubation for 60 minutes at ambient temperature. Finally, 100 μl of 10% trichloroacetic acid (TCA) were added and incubated for 30 minutes at room temperature to halt the reaction and precipitate radiolabeled protein products. Reaction products were harvested on glass fiber 96 well filter plates prewetted with water and 1% pyrophosphate. The filter plate was then washed 5 times with water. Water was displaced by absolute ethanol and the plate was allowed to air dry for 30 minutes at room temperature. A back seal was applied manually and 40 μl of scintillation cocktail were dispensed to each well. A top seal was applied and the plate was counted in the TopCount for two seconds per well.

[2] = EC50 (no method described)
A375 cells = experiment: Growth inhibition assay (GI50), A375 cells, CellTiterGlo; assay type: cell-based; settings: Homo sapiens, A-375, 48 hr, ATP levels
Experimental: For growth inhibition experiments, A375 cells were plated in white 384-well microplates at 1000 cells/[…]/well. After 24 hr, […] of a 5× drug stock solution was added. All drugs were initially prepared as 200× stocks in DMSO, such that final DMSO concentration was 0.5%. Cells were incubated for 48 hr at 37° C. and ATP levels were determined using CellTiterGlo (Promega, Madison, Wis.). A control MEK inhibitor was used to determine the ATP level corresponding to full growth inhibition and the concentration of test compound that gave ATP levels midway between full growth inhibition and vehicle only ATP levels was determined to be the GI50 using non-linear regression (GraphPad Prism 4).

THP-1 = experiment: Growth inhibition assay (GI50), THP-1; assay type: cell-based; settings: Homo sapiens

T1 sequence (Q02750 whole entry S218D/S222D): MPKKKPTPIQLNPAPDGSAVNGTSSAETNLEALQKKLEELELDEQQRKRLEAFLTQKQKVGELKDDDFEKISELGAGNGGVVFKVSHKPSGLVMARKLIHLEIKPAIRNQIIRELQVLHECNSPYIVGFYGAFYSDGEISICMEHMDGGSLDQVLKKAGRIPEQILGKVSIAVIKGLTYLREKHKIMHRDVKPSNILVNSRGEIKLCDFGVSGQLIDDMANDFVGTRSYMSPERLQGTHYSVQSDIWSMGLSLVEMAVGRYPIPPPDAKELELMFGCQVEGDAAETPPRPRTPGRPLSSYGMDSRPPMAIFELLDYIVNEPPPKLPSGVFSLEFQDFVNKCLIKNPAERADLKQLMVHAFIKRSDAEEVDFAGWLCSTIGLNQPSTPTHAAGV

IC50 [1] | EC50 [2] | GI50 (A375 cells) | GI50 (THP-1) | SMILES
0.5 to 1 µM | 0.5 to 1 µM | > 1 µM | > 1 µM | Cn1cc(NS(=O)(=O)C2(CC(O)CO)CC2)c(Nc2ccc(I)cc2F)cc1=O (stereo not drawn) [Example 2, 1-(2,3-dihydroxypropyl)-N-(4-(2-fluoro-4-iodophenylamino)-1-methyl-6-oxo-1,6-dihydropyridin-3-yl)cyclopropane-1-sulfonamide]
0.1 to 0.5 µM | < 0.1 µM |  |  | Cc1c(Nc2ccc(I)cc2F)c(NS(=O)(=O)C2(Cl)CC2)cn(C)c1=O [Example 10, 1-Chloro-Cyclopropanesulfonic acid [4-(2-fluoro-4-iodo-phenylamino)-1,5-dimethyl-6-oxo-1,6-dihydro-pyridin-3-yl]-amide]
> 1 µM |  | > 1 µM | > 1 µM | Cn1cc(NS(=O)(=O)NCC(O)CO)c(Nc2ccc(I)cc2F)cc1=O (stereo not drawn) [Example 13]
> 1 µM | 0.5 to 1 µM | 0.5 to 1 µM | 0.1 to 0.5 µM | CN(C)S(=O)(=O)Nc1cn(C)c(=O)cc1Nc1ccc(I)cc1F [Example 6, N-(4-(2-fluoro-4-iodophenylamino)-1-methyl-6-oxo-1,6-dihydropyridin-3-yl)dimethyl-1-sulfamide]
< 0.1 µM | 0.1 to 0.5 µM |  |  | Cn1cc(NS(=O)(=O)C2(CC(O)CO)CC2)c(Nc2ccc(I)cc2F)c(F)c1=O (stereo not drawn) [Example 11, 1-(2,3-Dihydroxy-propyl)-cyclopropanesulfonic acid [5-fluoro-4-(2-fluoro-4-iodo-phenylamino)-1-methyl-6-oxo-1,6-dihydro-pyridin-3-yl]-amide]
0.5 to 1 µM |  | > 1 µM | > 1 µM | Cn1cc(NS(=O)(=O)C2CC2)c(Nc2ccc(Br)cc2F)c(F)c1=O [Example 7, Cyclopropanesulfonic acid [4-(4-bromo-2-fluoro-phenylamino)-5-fluoro-1-methyl-6-oxo-1,6-dihydro-pyridin-3-yl]-amide]
< 0.1 µM | < 0.1 µM | < 0.1 µM | > 1 µM | Cn1cc(NS(=O)(=O)C2CC2)c(Nc2ccc(I)cc2F)c(F)c1=O [Example 4, N-(5-fluoro-4-(2-fluoro-4-iodophenylamino)-1-methyl-6-oxo-1,6-dihydropyridin-3-yl)cyclopropanesulfonamide]
0.5 to 1 µM | < 0.1 µM | < 0.1 µM | < 0.1 µM | Cn1cc(NS(=O)(=O)C2CC2)c(Nc2ccc(I)cc2F)cc1=O [Example 1, N-(4-(2-fluoro-4-iodophenylamino)-1-methyl-6-oxo-1,6-dihydropyridin-3-yl)cyclopropanesulfonamide]
< 0.1 µM | < 0.1 µM |  |  | Cc1c(Nc2ccc(I)cc2F)c(NS(=O)(=O)C2CC2)cn(C)c1=O [Example 5, N-(4-(2-fluoro-4-iodophenylamino)-1,5-dimethyl-6-oxo-1,6-dihydropyridin-3-yl)cyclopropanesulfonamide]
> 1 µM |  |  |  | Cn1cc(NS(=O)(=O)C2CC2)c(Nc2ccc(Br)cc2F)cc1=O [Example 8, Cyclopropanesulfonic acid [4-(4-bromo-2-fluoro-phenylamino)-1-methyl-6-oxo-1,6-dihydro-pyridin-3-yl]-amide]
< 0.1 µM | < 0.1 µM | 0.5 to 1 µM | > 1 µM | Cn1cc(NS(=O)(=O)C2CC2)c(Nc2ccc(I)cc2F)c(Cl)c1=O [Example 9, Cyclopropanesulfonic acid [5-chloro-4-(2-fluoro-4-iodo-phenylamino)-1-methyl-6-oxo-1,6-dihydro-pyridin-3-yl]-amide]
< 0.1 µM | < 0.1 µM |  |  | Cn1cc(NS(=O)(=O)C2(CC(=O)CO)CC2)c(Nc2ccc(I)cc2F)c(F)c1=O [Example 12, 1-(3-Hydroxy-2-oxo-propyl)-cyclopropanesulfonic acid [5-fluoro-4-(2-fluoro-4-iodo-phenylamino)-1-methyl-6-oxo-1,6-dihydro-pyridin-3-yl]-amide]
0.5 to 1 µM | 0.1 to 0.5 µM | > 1 µM | > 1 µM | Cn1cc(NS(=O)(=O)C2CC2)c(Nc2ccc(Br)cc2F)c(Cl)c1=O [Example 3, N-(5-chloro-4-(2-fluoro-4-bromophenylamino)-1-methyl-6-oxo-1,6-dihydropyridin-3-yl)cyclopropanesulfonamide]
